The numbers were not newly measured in US20100080856A1, “Method and composition for postoperative wound healing” (priority 2008, published 2010), which cites them from elsewhere.

In the series the test system is wound healing in severe burn patients. As to conditions: oral administration, Crit Care Med. 2000, Vol 28, No. 6, 1772-1776.

For `NCCC[C@H](N)C(=O)O.NCCC[C@H](N)C(=O)O.O=C(O)CCC(=O)C(=O)O` [ornithine α-ketoglutarate], the wound healing time result is given as “shortens the wound healing time”.
